Experimental data: patent publication US8222448B2, “Processes for production of 2-bromo-2,2-difluoroethanol and 2-(alkylcarbonyloxy)-1, 1-difluoroethanesulfonic acid salt” (priority 2007, dated 2012)

Assay: Solubility in propylene glycol methyl ether acetate
Assay type: physicochemical
Details: 1.0 g added to 100 g of propylene glycol methyl ether acetate, stirring
Text: 1.0 g of sodium 2-(1′-adamantane)carbonyloxy-1,1-difluoroethanesulfonate synthesized in Example 8 was weighed and added to 100 g of propylene glycol methyl ether acetate, followed by stirring.

With `O=C(OCC(F)(F)S(=O)(=O)[O-])C12CC3CC(CC(C3)C1)C2.c1ccc([S+](c2ccccc2)c2ccccc2)cc1` [Example 8, triphenylsulfonium 2-(1′-adamantane)carbonyloxy-1,1-difluoroethanesulfonate] the Solubility was “completely dissolved”.
